Measured values taken from patent US9376442B2, “Methylpyrrolopyrimidinecarboxamides” (Takeda GmbH, priority 2009, dated 2016).

Key:
[1] = biological target: T1, PDE5A1 (Homo sapiens, UniProt O76074); test: Inhibition of type 5 phosphodiesterase (PDE5) activity, modified SPA test with human platelet lysate; type: biochemical; conditions: 0.5 μM cGMP, read-out: PDE5A1 inhibitory values [measured as −log IC50 (mol/l)] (converted)
T1 construct: from tissue; host or cells: human platelets from fresh donor blood (10,000 x g supernatant of sonicated lysate)
Procedure, shortened: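 Scintillation proximity assay with [3H]cGMP tracer at 0.5 μM total cGMP, stopped after 15 min with beads containing IBMX. PDE3 and PDE2 activities suppressed with motapizone (1 μM) and a PDE2 inhibitor (10 nM). Human platelet supernatant served as the enzyme, with compound preincubated 5 min at 37° C; IC50 values from concentration-effect curves.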

[2] = biological target: T2, PDE4B1 (Homo sapiens, UniProt Q07343); test: Inhibition of type 4 phosphodiesterase (PDE4) activity, modified SPA test with recombinant PDE4B1 expressed in SF21 insect cells; type: biochemical; conditions: recombinant PDE4B1, 0.5 μM cAMP, read-out: PDE4B1 inhibitory values [measured as −log IC50 (mol/l)] (converted)
T2 construct: made in house; host or cells: SF21 insect cells (baculovirus; pCRBac vector), 1000 x g supernatant of homogenate
Procedure, shortened: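 Modified [3H]cAMP SPA using 1000×g supernatant of SF21 cells expressing recombinant human PDE4B1, in 20 mM Tris pH 7.4, 0.1 mg/ml BSA, 5 mM Mg2+, 0.5 μM cAMP. After 5 min preincubation at 37 °C, 15 min reaction, stopped with SPA beads plus IBMX; IC50 by non-linear regression.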

T2 sequence (Q07343 whole entry): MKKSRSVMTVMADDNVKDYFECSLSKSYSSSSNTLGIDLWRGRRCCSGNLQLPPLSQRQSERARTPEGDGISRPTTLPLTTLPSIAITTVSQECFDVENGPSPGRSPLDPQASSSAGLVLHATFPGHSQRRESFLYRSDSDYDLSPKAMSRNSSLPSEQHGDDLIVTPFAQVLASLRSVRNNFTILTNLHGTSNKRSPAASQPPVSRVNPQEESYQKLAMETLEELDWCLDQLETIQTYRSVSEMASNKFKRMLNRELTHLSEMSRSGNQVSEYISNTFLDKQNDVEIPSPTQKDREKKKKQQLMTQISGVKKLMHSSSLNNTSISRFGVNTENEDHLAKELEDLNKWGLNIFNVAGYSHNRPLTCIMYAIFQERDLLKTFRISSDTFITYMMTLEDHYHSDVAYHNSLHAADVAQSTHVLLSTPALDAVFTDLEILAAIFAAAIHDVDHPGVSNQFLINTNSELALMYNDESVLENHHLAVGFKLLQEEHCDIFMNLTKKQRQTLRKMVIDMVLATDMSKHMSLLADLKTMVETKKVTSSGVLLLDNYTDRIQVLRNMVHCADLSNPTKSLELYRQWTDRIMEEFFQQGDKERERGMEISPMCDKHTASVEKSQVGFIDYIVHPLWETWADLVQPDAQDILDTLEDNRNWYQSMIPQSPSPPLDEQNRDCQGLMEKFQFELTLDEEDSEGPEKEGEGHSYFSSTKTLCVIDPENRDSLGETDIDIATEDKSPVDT

Compound	IC50 [1] [nM]	IC50 [2] [nM]
CCC(=O)N[C@H]1CC[C@H](NC(=O)c2c(C)[nH]c3c(-c4cc(C)ccc4OCC4CC4)ncnc23)CC1 [Example E85, 4-[2-(Cyclopropylmethoxy)-5-methylphenyl]-6-methyl-N-[trans-4-(propanoylamino)cyclohexyl]-5H-pyrrolo[3,2-d]pyrimidine-7-carboxamide]	< 1	< 100
COCC(=O)N[C@H]1CC[C@H](NC(=O)c2c(C)[nH]c3c(-c4cc(C)ccc4OCC4CC4)ncnc23)CC1 [Example E86, 4-[2-(Cyclopropylmethoxy)-5-methylphenyl]-N-{trans-4-[(methoxyacetyl)amino]cyclohexyl}-6-methyl-5H-pyrrolo[3,2-d]pyrimidine-7-carboxamide]	< 1	< 100
CC(=O)N[C@H]1CC[C@@H](NC(=O)c2c(C)[nH]c3c(-c4cc(C)ccc4OCC4CC4)ncnc23)CC1 [Example E87, N-[cis-4-(acetylamino)cyclohexyl]-4-[2-(cyclopropylmethoxy)-5-methylphenyl]-6-methyl-5H-pyrrolo[3,2-d]pyrimidine-7-carboxamide]	< 1	< 100
CCC(=O)N[C@H]1CC[C@@H](NC(=O)c2c(C)[nH]c3c(-c4cc(C)ccc4OCC4CC4)ncnc23)CC1 [Example E88, 4-[2-(Cyclopropylmethoxy)-5-methylphenyl]-6-methyl-N-[cis-4-(propanoylamino)cyclohexyl]-5H-pyrrolo[3,2-d]pyrimidine-7-carboxamide]	< 1	< 100
COCC(=O)N[C@H]1CC[C@@H](NC(=O)c2c(C)[nH]c3c(-c4cc(C)ccc4OCC4CC4)ncnc23)CC1 [Example E89, 4-[2-(Cyclopropylmethoxy)-5-methylphenyl]-N-{cis-4-[(methoxyacetyl)amino]cyclohexyl}-6-methyl-5H-pyrrolo[3,2-d]pyrimidine-7-carboxamide]	< 1	< 100
CC(=O)N1CCC(NC(=O)c2c(C)[nH]c3c(-c4cc(C(F)(F)F)ccc4OCC4CC4)ncnc23)CC1 [Example E90, N-(1-Acetylpiperidin-4-yl)-4-[2-(cyclopropylmethoxy)-5-(trifluoromethyl)phenyl]-6-methyl-5H-pyrrolo[3,2-d]pyrimidine-7-carboxamide]	< 1	< 100
CCC(=O)N1CCC(NC(=O)c2c(C)[nH]c3c(-c4cc(C(F)(F)F)ccc4OCC4CC4)ncnc23)CC1 [Example E91, 4-[2-(Cyclopropylmethoxy)-5-(trifluoromethyl)phenyl]-6-methyl-N-(1-propanoylpiperidin-4-yl)-5H-pyrrolo[3,2-d]pyrimidine-7-carboxamide]	< 1	< 100
COCC(=O)N1CCC(NC(=O)c2c(C)[nH]c3c(-c4cc(C(F)(F)F)ccc4OCC4CC4)ncnc23)CC1 [Example E92, 4-[2-(Cyclopropylmethoxy)-5-(trifluoromethyl)phenyl]-N-[1-(methoxyacetyl)piperidin-4-yl]-6-methyl-5H-pyrrolo[3,2-d]pyrimidine-7-carboxamide]	< 1	< 100
CC(=O)N[C@H]1CC[C@H](NC(=O)c2c(C)[nH]c3c(-c4cc(C(F)(F)F)ccc4OCC4CC4)ncnc23)CC1 [Example E93, N-[trans-4-(acetylamino)cyclohexyl]-4-[2-(cyclopropylmethoxy)-5-(trifluoromethyl)phenyl]-6-methyl-5H-pyrrolo[3,2-d]pyrimidine-7-carboxamide]	< 1	< 100
CCC(=O)N[C@H]1CC[C@H](NC(=O)c2c(C)[nH]c3c(-c4cc(C(F)(F)F)ccc4OCC4CC4)ncnc23)CC1 [Example E94, 4-[2-(cyclopropylmethoxy)-5-(trifluoromethyl)phenyl]-6-methyl-N-[trans-4-(propanoylamino)cyclohexyl]-5H-pyrrolo[3,2-d]pyrimidine-7-carboxamide]	< 1	< 100
COCC(=O)N[C@H]1CC[C@H](NC(=O)c2c(C)[nH]c3c(-c4cc(C(F)(F)F)ccc4OCC4CC4)ncnc23)CC1 [Example E95, 4-[2-(Cyclopropylmethoxy)-5-(trifluoromethyl)phenyl]-N-{trans-4-[(methoxyacetyl)amino]cyclohexyl}-6-methyl-5H-pyrrolo[3,2-d]pyrimidine-7-carboxamide]	< 1	< 100
CC(=O)N[C@H]1CC[C@@H](NC(=O)c2c(C)[nH]c3c(-c4cc(C(F)(F)F)ccc4OCC4CC4)ncnc23)CC1 [Example E96, N-[cis-4-(acetylamino)cyclohexyl]-4-[2-(cyclopropylmethoxy)-5-(trifluoromethyl)phenyl]-6-methyl-5H-pyrrolo[3,2-d]pyrimidine-7-carboxamide]	< 1	100 to 1000
CCC(=O)N[C@H]1CC[C@@H](NC(=O)c2c(C)[nH]c3c(-c4cc(C(F)(F)F)ccc4OCC4CC4)ncnc23)CC1 [Example E97, 4-[2-(Cyclopropylmethoxy)-5-(trifluoromethyl)phenyl]-6-methyl-N-[cis-4-(propanoylamino)cyclohexyl]-5H-pyrrolo[3,2-d]pyrimidine-7-carboxamide]	< 1	< 100
COCC(=O)N[C@H]1CC[C@@H](NC(=O)c2c(C)[nH]c3c(-c4cc(C(F)(F)F)ccc4OCC4CC4)ncnc23)CC1 [Example E98, 4-[2-(Cyclopropylmethoxy)-5-(trifluoromethyl)phenyl]-N-{cis-4-[(methoxyacetyl)amino]cyclohexyl}-6-methyl-5H-pyrrolo[3,2-d]pyrimidine-7-carboxamide]	< 1	< 100
CCc1ccc(OCC2CC2)c(-c2ncnc3c(C(=O)NC4CCN(C(C)=O)CC4)c(C)[nH]c23)c1 [Example E145, N-(1-Acetylpiperidin-4-yl)-4-[2-(cyclopropylmethoxy)-5-ethylphenyl]-6-methyl-5H-pyrrolo[3,2-d]pyrimidine-7-carboxamide]	< 1	100 to 1000
CCC(=O)N1CCC(NC(=O)c2c(C)[nH]c3c(-c4cc(CC)ccc4OCC4CC4)ncnc23)CC1 [Example E146, 4-[2-(Cyclopropylmethoxy)-5-ethylphenyl]-6-methyl-N-(1-propanoylpiperidin-4-yl)-5H-pyrrolo[3,2-d]pyrimidine-7-carboxamide]	< 1	100 to 1000
CCc1ccc(OCC2CC2)c(-c2ncnc3c(C(=O)NC4CCN(C(=O)COC)CC4)c(C)[nH]c23)c1 [Example E147, 4-[2-(Cyclopropylmethoxy)-5-ethylphenyl]-N-[1-(methoxyacetyl)piperidin-4-yl]-6-methyl-5H-pyrrolo[3,2-d]pyrimidine-7-carboxamide]	< 1	100 to 1000
CCc1ccc(OCC2CC2)c(-c2ncnc3c(C(=O)N[C@H]4CC[C@H](NC(C)=O)CC4)c(C)[nH]c23)c1 [Example E148, N-[trans-4-(Acetylamino)cyclohexyl]-4-[2-(cyclopropylmethoxy)-5-ethylphenyl]-6-methyl-5H-pyrrolo[3,2-d]pyrimidine-7-carboxamide]	< 1	< 100
CCC(=O)N[C@H]1CC[C@H](NC(=O)c2c(C)[nH]c3c(-c4cc(CC)ccc4OCC4CC4)ncnc23)CC1 [Example E149, 4-[2-(Cyclopropylmethoxy)-5-ethylphenyl]-6-methyl-N-[trans-4-(propanoylamino)cyclohexyl]-5H-pyrrolo[3,2-d]pyrimidine-7-carboxamide]	< 1	< 100
CCc1ccc(OCC2CC2)c(-c2ncnc3c(C(=O)N[C@H]4CC[C@H](NC(=O)COC)CC4)c(C)[nH]c23)c1 [Example E150, 4-[2-(Cyclopropylmethoxy)-5-ethylphenyl]-N-{trans-4-[(methoxyacetyl)amino]cyclohexyl}-6-methyl-5H-pyrrolo[3,2-d]pyrimidine-7-carboxamide]	< 1	< 100
CCc1ccc(OCC2CC2)c(-c2ncnc3c(C(=O)N[C@H]4CC[C@@H](NC(C)=O)CC4)c(C)[nH]c23)c1 [Example E151, N-[cis-4-(Acetylamino)cyclohexyl]-4-[2-(cyclopropylmethoxy)-5-ethylphenyl]-6-methyl-5H-pyrrolo[3,2-d]pyrimidine-7-carboxamide]	< 1	100 to 1000
CCC(=O)N[C@H]1CC[C@@H](NC(=O)c2c(C)[nH]c3c(-c4cc(CC)ccc4OCC4CC4)ncnc23)CC1 [Example E152, 4-[2-(Cyclopropylmethoxy)-5-ethylphenyl]-6-methyl-N-[cis-4-(propanoylamino)cyclohexyl]-5H-pyrrolo[3,2-d]pyrimidine-7-carboxamide]	< 1	100 to 1000
CCc1ccc(OCC2CC2)c(-c2ncnc3c(C(=O)N[C@H]4CC[C@@H](NC(=O)COC)CC4)c(C)[nH]c23)c1 [Example E153, 4-[2-(Cyclopropylmethoxy)-5-ethylphenyl]-N-{cis-4-[(methoxyacetyl)amino]cyclohexyl}-6-methyl-5H-pyrrolo[3,2-d]pyrimidine-7-carboxamide]	< 1	100 to 1000
CC(=O)N1CCC(NC(=O)c2c(C)[nH]c3c(-c4cc(C(C)C)ccc4OCC4CC4)ncnc23)CC1 [Example E157, N-(1-Acetylpiperidin-4-yl)-4-[2-(cyclopropylmethoxy)-5-(propan-2-yl)phenyl]-6-methyl-5H-pyrrolo[3,2-d]pyrimidine-7-carboxamide]	< 1	100 to 1000
